# From patent US20170027868A1, “PEPTIDE-[…]” (priority 2015, published 2017)
# Read-outs that look alike come from different tables or passages of the source.
# How the values were obtained:
# C26 cells [1] = test: cells
# Method: At first, C26 cells were seeded in RPMI 1640 media in 96-well plates (5000 cells/well) and were incubated at 37° C. After overnight incubation, cells were treated with different concentration of drug (1:2 serial dilutions of liposomal doxorubicin or free doxorubicin in FCS-free medium) and then incubated at 37° C. for 3 and 6 hours.
# After scheduled incubation times, cells were washed with pre-warmed complete culture media and re-incubated further for 48 hours at 37° C. and then the viability of cells was determined by MTT assay; for this purpose, 20 ml of MTT (Thiazolyl Blue Tetrazolium Bromide; Sigma-Aldrich) was added to each well of the plate and was incubated for 4 hours at 37° C.
# Relative cell death was calculated as follows: R=(A control−A test)/(A control−A blank) where A test and A control were the absorbance of the cells treated with the test dilutions and the culture medium (negative control). A blank was the absorbance of cell free wells.
# [2] = tested on: HDM-2-negative NIH-3T3 cells; conditions: NIH3T3 cells, 20 μg doxorubicin/ml, 37° C., 3 hours; FIG. 6A
# Method: (§2) For evaluating in vitro cellular uptake, NIH3T3 cells were seeded in complete DMEM and C26 were seeded in complete RPMI in 24-well plates (2×10^5 cells/well). […] Then, cells were washed with PBS, detached by 100 μl of trypsin-EDTA solution (Gibco, UK) and centrifuged at 1500 rpm for 5 minutes. The cells were washed with cold PBS three times and resuspended in staining buffer before analysis. […] Then 0.9 ml of an acidified isopropanol was added to each well, and the mixture was incubated overnight at 4° C. to extract the cell-associated doxorubicin. After sedimentation of the cell debris, doxorubicin concentration was measured.
# (§3) Referring to FIGS. 6A and 6B, the geometric mean fluorescence intensity (MFI) of doxorubicin in cells was analyzed by using flow cytometry (FCM) in the FL2 channel.
# [3] = Bio-distribution study in tumor-bearing mice; conditions: 24 and 48 h; FIG. 8A
# Method: Blood samples were collected 3, 6, and 12 hours after drug injection via retro orbital bleeding.
# Animals were sacrificed at 24 and 48 h after drug administration and blood samples were drawn by heart puncture. The whole tumor, one of the kidneys, spleen, heart, lungs as well as a portion of the liver and muscle were dissected, weighted and homogenized in acidified isopropanol with zirconia beads by Mini-Beadbeater-1 (Biospec, OK). Then the blood and the homogenized tissue samples were centrifuged and the blood serum as well as the sera of tissue samples were diluted in adequate volume of acidified isopropanol and stored at 4° C. overnight for Doxorubicin extraction.
# The samples were centrifuged and the supernatant was assayed for Doxorubicin concentration by measuring fluorescence at λEx/Em=480/590 nm compared with Doxorubicin calibration curves, which were prepared in the tissue and sera extracts of the control mice. The pharmacokinetic concentration of doxorubicin was shown as μg/ml of serum.
# HDM-2-positive C26 cells = test: In vitro cellular binding at 4° C., flow cytometry; format: cell-based; conditions: 20 μg doxorubicin/ml, 1 hour, FIG. 5B
# Method: (§1) The exemplary procedure was as follows: cells were detached from cell culture dishes by using 0.05% trypsin and 0.02% EDTA (GIBCO). […] Afterward, the cells were washed three times with PBS and re-suspended in an appropriate volume of the buffer and were analyzed by flow cytometry. BD FACS Calibur equipped was used to read fluorescence signal.
# [4] = tested on: C-26 colon carcinoma tumor; test: In vivo tumor-targeted therapeutic study; conditions: mice bearing C-26 tumor
# Method: Tumor models were C26 colon carcinoma in BALB/c mice Female BALB/c mice 4-6 week's old and female C57BL/6 mice 6-12 weeks old were injected subcutaneously in the right flank with tumor cells.
# Also tumor size was monitored three times a week for 60 days. Three dimensions of tumor (height, length and width) were measured with calipers and tumor volume was calculated via the following formula: tumor volume=(height×length×width)×0.5 cm^3. According to instructions for C26 tumor bearing animals, euthanasia was occurred when their body weight decreased (>20% loss of initial mass), their tumor was greater than 2.0 cm in one dimension or they became sick and unable to feed.
# The median survival time (MST) and time to reach end point (TTE) for each mouse were calculated from the equation of the line obtained by exponential regression of the tumor growth curve. Subsequently, the percent of tumor growth delay (TGD) were calculated based on the difference between the mean TTE of treatment group (T) and the mean TTE of the control group (C) (% TGD=[(T−C)/C]×100).
# C26 cells [5] = test: In vitro cellular uptake at 37° C., flow cytometry; format: cell-based; conditions: 20 μg doxorubicin/ml, 3 hours, FIG. 6B
# Method: as §2, §3
# [6] = tested on: HDM-2-negative NIH-3T3 cells; test: In vitro cellular binding at 4° C., flow cytometry; format: cell-based, mouse; conditions: NIH3T3 cells, 20 μg doxorubicin/ml, 1 hour, FIG. 5A
# Method: as §1
# [7] = single i.v. dose 15 mg/kg doxorubicin
structure (smiles),measurement,setting,value
"COc1cccc2c1C(=O)c1c(O)c3c(c(O)c1C2=O)C[C@@](O)(C(=O)CO)C[C@@H]3O[C@H]1C[C@H](N)[C@H](O)[C@H](C)O1 [Free doxorubicin, doxorubicin]",IC50,"C26 cells [1]; C26, read-out: IC50 (μM ± SD), C26 cells, 3 h exposure, then 48 h re-incubation",0.625 ± 0.07 µM
same,IC50,"C26 cells [1]; C26, read-out: IC50 (μM ± SD), C26 cells, 6 h exposure, then 48 h re-incubation",0.302 ± 0.05 µM
same,cellular uptake (MFI of doxorubicin),[2],too high
same,bio-distribution in serum,[3],decreasing trend over time
same,cellular binding,HDM-2-positive C26 cells,more than other forms of drugs
same,TGD (tumor growth delay),"[4]; 15 mg/kg, [(T−C)/C]×100 of mean TTE",24.42%
same,MST (median survival time),[4]; [7],27 days
same,TTE (time to reach end point),[4]; [7],27 days
same,cellular uptake (MFI of doxorubicin),C26 cells [5],too high
same,cellular binding,[6],more than other forms of drugs
